Results from ChEMBL document CHEMBL5528020, “Small molecular CD73 inhibitors: Recent progress and future perspectives” (Eur J Med Chem, 2024).

These molecules were tested against 5'-nucleotidase (Homo sapiens, UniProt P21589) (assay: Inhibition of human recombinant Ecto-5'-nucleotidase).
Sequence of 5'-nucleotidase (P21589 whole entry): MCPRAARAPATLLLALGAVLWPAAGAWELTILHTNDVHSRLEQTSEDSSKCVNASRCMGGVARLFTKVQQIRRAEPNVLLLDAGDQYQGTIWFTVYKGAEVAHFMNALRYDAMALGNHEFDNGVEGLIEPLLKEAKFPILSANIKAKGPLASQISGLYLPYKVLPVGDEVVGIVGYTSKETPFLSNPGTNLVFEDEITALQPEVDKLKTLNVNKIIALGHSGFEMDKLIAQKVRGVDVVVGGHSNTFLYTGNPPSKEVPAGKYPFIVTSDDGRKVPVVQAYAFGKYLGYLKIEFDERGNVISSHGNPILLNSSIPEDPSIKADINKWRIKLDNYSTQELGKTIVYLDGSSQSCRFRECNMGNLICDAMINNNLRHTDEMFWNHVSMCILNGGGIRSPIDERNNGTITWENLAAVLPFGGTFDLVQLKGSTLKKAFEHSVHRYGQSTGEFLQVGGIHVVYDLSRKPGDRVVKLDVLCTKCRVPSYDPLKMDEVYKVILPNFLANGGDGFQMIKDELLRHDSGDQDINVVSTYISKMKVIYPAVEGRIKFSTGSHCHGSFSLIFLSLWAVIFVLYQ

IC50, > 0.1 nM:
O=S(=O)(c1ccc(-c2nsnc2-c2cc3c(-c4cccc(O)c4)nnc-3co2)cc1Br)C(F)(F)F
Cc1nc(-c2ccnn2-c2ccc(C#N)cc2)nc2cc(-c3ccc4cn[nH]c4c3)cnc12
O=S(=O)(c1ccc(-n2nccc2-c2ccc3nnn(-c4ccc5cn[nH]c5c4)c3c2)cc1Br)C(F)(F)F
O=S(=O)(c1ccc(-n2nccc2-c2ccc3nnn(-c4ccc5cn[nH]c5c4)c3c2)c(Br)c1)C(F)(F)F
O=S(=O)(c1ccc(-c2nn[nH]c2-c2cc3c(-c4cccc(O)c4)nnc-3co2)cc1Br)C(F)(F)F
N#Cc1ccc(-n2nccc2-c2ccc3nnn(-c4cccc(O)c4)c3c2)cc1
CC1NC(n2nnc3ccc(-c4ccnn4-c4ccc(C#N)cc4)cc32)CCS1 (stereo not drawn)
N#Cc1ccc(-c2ncsc2-c2cc3c(-c4ccc5cn[nH]c5c4)nnc-3co2)cc1
